Measurements taken from US8318731B2, “Pyrrolopyrimidines” (Janssen Pharmaceutica NV, priority 2007, dated 2012).

Key:
PLK4 (h) = molecular target: T1, PLK4 (h) (Homo sapiens, UniProt O00444); assay: PLK-4 human kinase scintillation proximity assay (SPA); assay type: biochemical; settings: 1 μM ATP, 60 minutes at r.t., read-out: PLK4 pIC50 (converted)
T1 sequence (O00444 1-970): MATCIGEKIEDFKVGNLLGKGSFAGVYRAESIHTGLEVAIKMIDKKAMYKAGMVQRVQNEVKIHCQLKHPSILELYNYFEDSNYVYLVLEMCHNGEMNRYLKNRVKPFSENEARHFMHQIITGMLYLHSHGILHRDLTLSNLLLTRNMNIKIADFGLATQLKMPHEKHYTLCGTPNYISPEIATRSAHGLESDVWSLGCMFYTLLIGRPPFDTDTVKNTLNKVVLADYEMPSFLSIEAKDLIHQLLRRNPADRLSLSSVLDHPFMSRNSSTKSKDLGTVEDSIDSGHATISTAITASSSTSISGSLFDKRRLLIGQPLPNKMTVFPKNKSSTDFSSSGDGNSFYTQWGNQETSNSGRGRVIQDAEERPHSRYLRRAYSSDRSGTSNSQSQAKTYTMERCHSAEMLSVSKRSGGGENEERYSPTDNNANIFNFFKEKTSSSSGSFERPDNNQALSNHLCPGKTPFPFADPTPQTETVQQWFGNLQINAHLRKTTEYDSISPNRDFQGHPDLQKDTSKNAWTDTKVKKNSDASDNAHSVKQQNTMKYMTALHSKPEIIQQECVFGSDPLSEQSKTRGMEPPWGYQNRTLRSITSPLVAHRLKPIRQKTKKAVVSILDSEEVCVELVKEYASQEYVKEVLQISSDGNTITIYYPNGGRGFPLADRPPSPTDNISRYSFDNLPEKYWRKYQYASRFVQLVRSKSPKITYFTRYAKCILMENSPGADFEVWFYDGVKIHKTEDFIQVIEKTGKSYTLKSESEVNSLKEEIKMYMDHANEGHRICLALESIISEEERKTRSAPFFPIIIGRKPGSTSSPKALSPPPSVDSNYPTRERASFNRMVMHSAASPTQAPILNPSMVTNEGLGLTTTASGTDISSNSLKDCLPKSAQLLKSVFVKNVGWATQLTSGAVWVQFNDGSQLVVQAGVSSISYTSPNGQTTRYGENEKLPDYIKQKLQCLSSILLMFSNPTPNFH
Method in brief: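 Scintillation proximity read-out: EDTA-stopped reactions were captured on streptavidin SPA beads after PLK4 (19 μg/ml) had phosphorylated 10 μM biotin-peptide for 60 min at room temperature, using 1 μM ATP spiked with 2 nM 33P-ATP in pH 8.0 HEPES buffer.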

HCT-116 = assay: Cellular proliferation assay (Alamar blue), HCT-116; assay type: cell-based; settings: Homo sapiens; HCT-116 cells; 10% FCS; 72 h with compound; Alamar blue 4 h; read-out: pIC50 HCT-116 (converted)
Method in brief: (§1)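 Resazurin-based Alamar blue fluorescence (544/590 nm) measured viable cell number after 72 h compound exposure, following 24 h compound-free seeding, with 10% FCS, 37° C, 5% CO2. Dye incubation lasted 24 h for PC3 and A2780, 6 h for U87-MG, 4 h for HCT-116; results relative to untreated controls.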

H1299 = assay: Cellular proliferation assay (Alamar blue), H1299; assay type: cell-based; settings: Homo sapiens, NCI-H1299, H1299 cells; 10% FCS; 72 h with compound; Alamar blue 4 h; read-out: pIC50 H1299 (converted)
Method in brief: (§2)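 Viable cell number is determined by Alamar blue conversion after cells are treated with compound for 72 hours, following 24 hours of growth without compound in 10% FCS. The effect is calculated against control cells.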

U87-MG = assay: Cellular proliferation assay (Alamar blue), U87-MG; assay type: cell-based; settings: Homo sapiens, U-87 MG; U87-MG cells; 10% FCS; 72 h with compound; Alamar blue 6 h; read-out: pIC50 U87MG (converted)
Procedure: Cellular proliferation of these compounds was tested on a panel of different cell lines in the presence of 10% FCS serum (37° C. and 5% (v/v) CO2). In a first step these cells were seeded and incubated for 24 hours in the absence of compound. In the second step the cells were incubated for 72 hours with the compounds to be tested for 72 hours. The viable cell number was finally assessed in a standard Alamar blue cell viability assay.
The viable cell number was assessed by incubation for either 4 h (HCT-116, H1299) 6 h (U87-MG) or 24 h (A2780, PC3, MDA-MB-231) with Alamar blue (Resazurin 9 μg/ml, K-Ferrocyanide 90 μM, K-Ferricyanide 90 μM) and the converted fluorescent product was quantified on a fluorescent plate readed (544 nm/590 nm). Effect of the compounds is calculated as of on control cells.

A2780 = assay: Cellular proliferation assay (Alamar blue), A2780; assay type: cell-based; settings: Homo sapiens, A2780, A2780 cells; 10% FCS; 72 h with compound; Alamar blue 24 h; read-out: pIC50 A2780 (converted)
Method in brief: as §1

PC3 = assay: Cellular proliferation assay (Alamar blue), PC3; assay type: cell-based; settings: Homo sapiens, PC-3, PC-3 cells; 10% FCS; 72 h with compound; Alamar blue 24 h; read-out: pIC50 PC-3 (converted)
Method in brief: as §1

MDA-MB-231 = assay: Cellular proliferation assay (Alamar blue), MDA-MB-231; assay type: cell-based; settings: Homo sapiens, MDA-MB-231, MDA-MB-231 cells; 10% FCS; 72 h with compound; Alamar blue 24 h; read-out: pIC50 MDA/MB231 (converted)
Method in brief: as §2

Row | Structure (SMILES) | IC50 (PLK4 (h)) [µM] | IC50 (HCT-116) [µM] | IC50 (H1299) [µM] | IC50 (U87-MG) [µM] | IC50 (A2780) [µM] | IC50 (PC3) [µM] | IC50 (MDA-MB-231) [µM]
1 | COc1ccc2cc1OCC(=O)NCC1CN(Cc3c[nH]c4ncnc(c34)N2)C1 [Compound 88] | 0.501 | 5.01 | > 10 | 10 | > 10 | > 10 | > 10
2 | COc1ccc2cc1OCC(=O)N(C)CCCNCc1c[nH]c3ncnc(c13)N2 [Compound 65] | 0.0794 | > 10 | > 10 | > 10 | > 10 | > 10 | > 10
3 | COc1cc2cc(c1OC)CCC(=O)N(C)CCCN(C)Cc1c[nH]c3ncnc(c13)N2 [Compound 30] | > 10 | > 10 | > 10 | > 10 | > 10 | > 10 | > 10
4 | COc1ccc2cc1OCC(=O)N1CCCC(CN(C)CCCc3c[nH]c4ncnc(c34)N2)C1 (centres unmarked) [Compound 29] | > 10 | > 10 | > 10 | > 10 | > 10 | > 10 | > 10
5 | CN1CCCN(C)C(=O)CCCCCOc2cc(ccc2Cl)Nc2ncnc3[nH]cc(c23)C1 [Compound 19] | 0.316 | > 10 | > 10 | > 10 | > 10 | > 10 | > 10
6 | COc1ccc2cc1OCC(=O)NCN(C)CCCc1c[nH]c3ncnc(c13)N2 [Compound 33] | 5.01 | > 10 | > 10 | > 10 | > 10 | > 10 | > 10
7 | CN1CCN(C)C(=O)CCCCOc2cc(ccc2N2CCOCC2)Nc2ncnc3[nH]cc(c23)C1 [Compound 48] | > 10 | > 10 | > 10 | > 10 | > 10 | > 10 | > 3.16
8 | CN1CCCN(C)C(=O)COc2cc(ccc2OCCN2CCCCC2)Nc2ncnc3[nH]cc(c23)C1 [Compound 136] | 0.251 | 2.51 | 5.01 | 1.58 | 1 | 2.51 | 3.16
9 | CN1CCCN(C)C(=O)COc2cc(cc(C(F)(F)F)c2)Nc2ncnc3[nH]cc(c23)C1 [Compound 54] | 0.251 | > 10 | > 10 | > 10 | > 10 | > 10 | > 10
10 | CN1CCCN(C)C(=O)COc2cc(ccc2N2CCOCC2)Nc2ncnc3[nH]cc(c23)C1 [Compound 85] | 0.158 | 2 | 2 | 2 | 1.58 | 5.01 | 7.94
11 | COc1ccc2cc1OCC(=O)N1CCC[C@H]1CN(C)CCCc1c[nH]c3ncnc(c13)N2 [Compound 27] | 6.31 | > 10 | > 10 | > 10 | > 10 | > 10 | > 10
12 | O=C1CCCCOc2cc(ccc2N2CCOCC2)Nc2ncnc3[nH]cc(c23)CN2CCN1CC2 [Compound 121] | 6.31 | > 10 | > 10 | > 10 | > 10 | > 10 | > 10
13 | COc1ccc2cc1OCCCCC(=O)N1CCN(CC1)Cc1c[nH]c3ncnc(c13)N2 [Compound 103] | 0.631 | > 10 | > 10 | > 10 | > 10 | > 10 | > 10
14 | CN1CCN(C)C(=O)CCCOc2cccc(c2)Nc2ncnc3[nH]cc(c23)C1 [Compound 31] | 0.794 | 6.31 | > 10 | > 10 | 3.98 | > 10 | > 10
15 | O=C1CCCCOc2cccc(c2)Nc2ncnc3[nH]cc(c23)CN2CCN1CC2 [Compound 86] | > 10 | > 10 | > 10 | > 10 | > 10 | > 10 | > 10

Next, values leading:

Row | IC50 (PLK4 (h)) [µM] | IC50 (HCT-116) [µM] | IC50 (H1299) [µM] | IC50 (U87-MG) [µM] | IC50 (A2780) [µM] | IC50 (PC3) [µM] | IC50 (MDA-MB-231) [µM] | Structure (SMILES)
16 | 0.0398 | 0.631 | 1.58 | 1.58 | 0.631 | 3.16 | 2 | CN1CCCN(C)C(=O)COc2cc(ccc2OCC2CC2)Nc2ncnc3[nH]cc(c23)C1 [Compound 68]
17 | 0.2 | 6.31 | 7.94 | > 10 | 3.98 | > 10 | > 10 | CC(C)NC(=O)Nc1ccc2cc1OCC(=O)N(C)CCCN(C)Cc1c[nH]c3ncnc(c13)N2 [Compound 122]
18 | 0.0794 | 0.126 | 0.398 | 3.16 | 0.0398 | 6.31 | 5.01 | CN1CCCN(C)C(=O)COc2cc(ccc2OCCOc2ccc(Cl)cc2)Nc2ncnc3[nH]cc(c23)C1 [Compound 134]
19 | 0.0631 | 0.0794 | 0.2 | 2.51 | 0.0631 | 2.51 | 3.16 | CN1CCCCN(C)C(=O)COc2cc(ccc2OCC(=O)Nc2ccc(Cl)cc2)Nc2ncnc3[nH]cc(c23)C1 [Compound 133]
20 | 0.0251 | 0.794 | > 10 | 2 | 0.794 | > 10 | > 10 | COc1ccc(NC(=O)Nc2ccc3cc2OCC(=O)N(C)CCCN(C)Cc2c[nH]c4ncnc(c24)N3)cc1 [Compound 15]
21 | 0.251 | > 10 | > 10 | > 10 | > 10 | > 10 | > 10 | COc1ccc2cc1OCCCC(=O)N(C)CCCN(C)Cc1c[nH]c3ncnc(c13)N2 [Compound 17]
22 | 0.0631 | 0.501 | 0.794 | 1 | 0.631 | 1 | 1.58 | CN1CCCN(C)C(=O)COc2cc(ccc2Br)Nc2ncnc3[nH]cc(c23)C1 [Compound 139]
23 | 0.0631 | 1.58 | 6.31 | 3.16 | 1.26 | 5.01 | 5.01 | CN1CCCN(C)C(=O)COc2cc(ccc2OCCSc2nccn2C)Nc2ncnc3[nH]cc(c23)C1 [Compound 143]
